These results are taken from publication PMC4503722, “Novel Phenotypic Outcomes Identified for a Public Collection of Approved Drugs from a Publicly Accessible Panel of Assays” (PLoS ONE, 2015).

Read-outs that look alike come from different tables or passages of the source.

Common to all, as to assay: cells
The subject of one test is HeLa cells. The test is classed as cell-based. The note with it: read-out: CellCycle G2/M.
For test [1], the system named is HCT116 cells treated with a GSK3β inhibitor. It is filed as cell-based.
In another test the test system is SNU-C1. The test is classed as cell-based.
Test [2] concerns endothelial tube formation in co-cultures of ECFCs and ADSCs treated with VEGF. It is filed as cell-based, human.
For a further test, the system named is RKO. The test is classed as cell-based. The note with it: read-out: Basal_Viability ATP RKO.
The subject of test [3] is nuclear β-catenin in C2C12 cells. The test is classed as cell-based.
The test system of another test is Colo320. The test is classed as cell-based.
A further test relates to DLD-1. It is filed as cell-based.
The next test deals with HCT116. The test is classed as cell-based.
The subject of a further test is SW480. It is filed as cell-based.
A further test has as its system NCI-H716 cells. It is filed as cell-based, Human.
For a further test, the system named is HT-29. It is filed as cell-based.
The subject of a further test is INS-1E cells. The test is classed as cell-based, rat.
Setting [4] is: read-out: GSK3b inh pretreated_Viability ATP HCT116.
Where [5] appears, read: read-out: Basal_Viability ATP SNU-C1.
The mark [6] stands for this setting: read-out: Basal_Viability ATP Colo 320.
[7] abbreviates: read-out: Basal_Viability ATP DLD-1.
Where [8] appears, read: read-out: Basal_Viability ATP HCT116.
[9] abbreviates: read-out: Basal_Viability ATP SW480.
Setting [10] is: read-out: Basal_Viability ATP HT-29.

In the case of `Fc1ccc(C(OCCN2CCN(CCCc3ccccc3)CC2)c2ccc(F)cc2)cc1`, the EC50 with HeLa cells (S2 Table, HeLa, 20 = no response at highest concentration) is greater than 10000 nM; in test [3] (S2 Table, module primary assay, 20 / 20.1 codes per legend, read-out: Wnt Pathway), greater than 10000 nM; in the test on NCI-H716 cells (S2 Table; module primary assay; 20 / 20.1 codes per legend; read-out: GLP 1 Secretion), greater than 10000 nM; with INS-1E cells (S2 Table; module primary assay; 20 / 20.1 codes per legend; read-out: Insulin Secretion) it was greater than 10000 nM. The IC50 in test [1] (HCT116 pretreated with GSK3b inhibitor, read-out: GSK3b inh pretreated_Viability ATP HCT116) was 2850 nM; in the test with SNU-C1 (basal, SNU-C1, read-out: Basal_Viability ATP SNU-C1), 1820 nM; in test [2] (S2 Table; module primary assay; 20 = no response at highest concentration, 20.1 = inactive in single concentration testing; read-out: Anti-Angiogenesis) it was greater than 10000 nM; with RKO (basal, RKO), 113 nM; with Colo320 (basal, Colo 320, read-out: Basal_Viability ATP Colo 320), greater than 20000 nM; with DLD-1 (basal, DLD-1, read-out: Basal_Viability ATP DLD-1), 903 nM. Further, the IC50 with HCT116 (basal, HCT116, read-out: Basal_Viability ATP HCT116) turned out to be 4870 nM; in the test on SW480 (basal, SW480, read-out: Basal_Viability ATP SW480), 2070 nM; with HT-29 (basal, HT-29, read-out: Basal_Viability ATP HT-29) it was 1490 nM.
As for `CCC(COC(=O)c1cc(OC)c(OC)c(OC)c1)(c1ccccc1)N(C)C` (centres unmarked), the EC50 (in the test with HeLa cells; in test [3] (read-out: Wnt Pathway); with NCI-H716 cells (read-out: GLP 1 Secretion); in the test on INS-1E cells (read-out: Insulin Secretion)) was greater than 10000 nM each time. Moreover, the IC50 in test [1] (setting [4]) is 1620 nM; with SNU-C1 (setting [5]) it was 2450 nM; in [2] (read-out: Anti-Angiogenesis), greater than 10000 nM; in the test on RKO, 142 nM; with Colo320 (setting [6]), greater than 20000 nM; with DLD-1 (setting [7]), greater than 20000 nM. Also, the IC50 in the test with HCT116 (setting [8]), with SW480 (setting [9]) and in the test with HT-29 (setting [10]) was greater than 20000 nM throughout.
As for `O=Cc1ccc(O)c(O)c1O` [2,3,4-Trihydroxybenzaldehyde], the EC50 in the test on HeLa cells (Homo sapiens, HeLa) is greater than 10000 nM; in [3] (Mus musculus, C2C12, read-out: Wnt Pathway) it was greater than 10000 nM; with NCI-H716 cells (Homo sapiens, NCI-H716, read-out: GLP 1 Secretion), greater than 10000 nM; in the test on INS-1E cells (Rattus norvegicus, INS-1E, read-out: Insulin Secretion), greater than 10000 nM. In addition, the IC50 is 141 nM in test [1] (Homo sapiens, HCT-116, read-out: GSK3b inh pretreated_Viability ATP HCT116); greater than 20000 nM in the test with SNU-C1 (Homo sapiens, SNU-C1, read-out: Basal_Viability ATP SNU-C1); greater than 10000 nM in test [2] (Homo sapiens, read-out: Anti-Angiogenesis); 6230 nM in the test with RKO (Homo sapiens, RKO); 9080 nM in the test on Colo320 (Homo sapiens, COLO 320, read-out: Basal_Viability ATP Colo 320); greater than 20000 nM in the test on DLD-1 (Homo sapiens, DLD-1, read-out: Basal_Viability ATP DLD-1). Also, the IC50 in the test with HCT116 (Homo sapiens, HCT-116, read-out: Basal_Viability ATP HCT116) is greater than 20000 nM; in the test with SW480 (Homo sapiens, SW480, read-out: Basal_Viability ATP SW480), 11300 nM; with HT-29 (Homo sapiens, HT-29, read-out: Basal_Viability ATP HT-29) it was greater than 20000 nM.
In the case of `CCN1C(=CC=Cc2sc3ccccc3[n+]2CC)Sc2ccccc21` [3,3'-diethylthiacarbocyanine iodide], the EC50 (with HeLa cells; in test [3] (read-out: Wnt Pathway); in the test on NCI-H716 cells (read-out: GLP 1 Secretion); in the test on INS-1E cells (read-out: Insulin Secretion)) was greater than 10000 nM throughout. Also, the IC50 in [1] (setting [4]) was 8.75 nM; in the test with SNU-C1 (setting [5]), 17.2 nM; in [2] (read-out: Anti-Angiogenesis), greater than 10000 nM; with RKO, 8.98 nM; in the test with Colo320 (setting [6]), 562 nM; in the test on DLD-1 (setting [7]) it was 14.8 nM. Besides, the figures for the IC50 in the test with HCT116 (setting [8]), with SW480 (setting [9]) and in the test with HT-29 (setting [10]) were 9.57 nM, 172 nM and 8.38 nM, respectively.
Take `CCc1oc2ccccc2c1C(=O)c1cc(Br)c(O)c(Br)c1` [Benzbromarone]: the EC50 in the test on HeLa cells (Homo sapiens, HeLa, S2 Table, HeLa, 20 = no response at highest concentration) was greater than 10000 nM; in [3] (Mus musculus, C2C12, S2 Table, module primary assay, 20 / 20.1 codes per legend, read-out: Wnt Pathway), greater than 10000 nM; in the test with NCI-H716 cells (Homo sapiens, NCI-H716; read-out: GLP 1 Secretion), greater than 20000 nM; in the test with INS-1E cells (Rattus norvegicus, INS-1E; read-out: Insulin Secretion) it was greater than 10000 nM. Moreover, the IC50 in test [1] (Homo sapiens, HCT-116, HCT116 pretreated with GSK3b inhibitor, read-out: GSK3b inh pretreated_Viability ATP HCT116) is 66.7 nM; in the test on SNU-C1 (Homo sapiens, SNU-C1, basal, SNU-C1, read-out: Basal_Viability ATP SNU-C1), 105 nM; in test [2] (Homo sapiens; read-out: Anti-Angiogenesis) it was greater than 10000 nM; in the test with RKO (Homo sapiens, basal, RKO), 131 nM; in the test with Colo320 (Homo sapiens, basal, Colo 320, read-out: Basal_Viability ATP Colo 320) it was greater than 20000 nM; in the test on DLD-1 (Homo sapiens, DLD-1, basal, DLD-1, read-out: Basal_Viability ATP DLD-1), 268 nM. Moreover, the IC50 in the test with HCT116 (Homo sapiens, HCT-116, basal, HCT116, read-out: Basal_Viability ATP HCT116) came to 1060 nM; in the test with SW480 (Homo sapiens, SW480, basal, SW480, read-out: Basal_Viability ATP SW480), 1740 nM; in the test with HT-29 (Homo sapiens, basal, HT-29, read-out: Basal_Viability ATP HT-29), 1140 nM.
